Results from PubChem BioAssay (NCI).
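All cell lines were grown in 96-well plates and treated with compound for 48 hours. Definition used: TGI = concentration required for complete inhibition of growth.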

Tests used:
Experiment in all cases: NCI tumour cell line growth inhibition, 48 h
786-0 renal = tested on: 786-0 renal
A549 NSCLC = tested on: A549 NSCLC
ACHN renal = tested on: ACHN renal
BT-549 breast = tested on: BT-549 breast
CAKI-1 renal = tested on: CAKI-1 renal
COLO 205 colon = tested on: COLO 205 colon
DU-145 prostate = tested on: DU-145 prostate
EKVX NSCLC = tested on: EKVX NSCLC
HCT-116 colon = tested on: HCT-116 colon
HCT-15 colon = tested on: HCT-15 colon
HL-60(TB) leukemia = tested on: HL-60(TB) leukemia
HOP-62 NSCLC = tested on: HOP-62 NSCLC
HS 578T breast = tested on: HS 578T breast
HT29 colon = tested on: HT29 colon
IGROV1 ovarian = tested on: IGROV1 ovarian
K-562 leukemia = tested on: K-562 leukemia
KM12 colon = tested on: KM12 colon
LOX IMVI melanoma = tested on: LOX IMVI melanoma
M14 melanoma = tested on: M14 melanoma
MALME-3M melanoma = tested on: MALME-3M melanoma
MCF7 breast = tested on: MCF7 breast
MDA-MB-231 breast = tested on: MDA-MB-231 breast
MDA-MB-435 = tested on: MDA-MB-435
MOLT-4 leukemia = tested on: MOLT-4 leukemia
NCI-H226 lung = tested on: NCI-H226 lung
NCI-H23 lung = tested on: NCI-H23 lung
NCI-H460 lung = tested on: NCI-H460 lung
NCI-H522 lung = tested on: NCI-H522 lung
NCI/ADR-RES ovarian = tested on: NCI/ADR-RES ovarian
OVCAR-3 ovarian = tested on: OVCAR-3 ovarian
OVCAR-5 ovarian = tested on: OVCAR-5 ovarian
OVCAR-8 ovarian = tested on: OVCAR-8 ovarian
PC-3 prostate = tested on: PC-3 prostate
RXF 393 renal = tested on: RXF 393 renal
SF-268 CNS = tested on: SF-268 CNS
SF-295 CNS = tested on: SF-295 CNS
SF-539 CNS = tested on: SF-539 CNS
SK-MEL-28 melanoma = tested on: SK-MEL-28 melanoma
SK-MEL-5 melanoma = tested on: SK-MEL-5 melanoma
SK-OV-3 ovarian = tested on: SK-OV-3 ovarian
SN12C renal = tested on: SN12C renal
SNB-19 CNS = tested on: SNB-19 CNS
SNB-75 CNS = tested on: SNB-75 CNS
SR leukemia = tested on: SR leukemia
SW-620 colon = tested on: SW-620 colon
T-47D breast = tested on: T-47D breast
TK-10 renal = tested on: TK-10 renal
U251 CNS = tested on: U251 CNS
UACC-257 melanoma = tested on: UACC-257 melanoma
UACC-62 melanoma = tested on: UACC-62 melanoma
UO-31 renal = tested on: UO-31 renal

C/C(=C\CO)CC/C=C(\C)CNc1ccccc1
TGI (786-0 renal): > 100 µM
TGI (A549 NSCLC): > 100 µM
TGI (ACHN renal): > 100 µM
TGI (BT-549 breast): 55.2 µM
TGI (CAKI-1 renal): > 100 µM
TGI (COLO 205 colon): > 100 µM
TGI (DU-145 prostate): > 100 µM
TGI (EKVX NSCLC): 93.7 µM
TGI (HCT-116 colon): > 100 µM
TGI (HCT-15 colon): > 100 µM
TGI (HL-60(TB) leukemia): > 100 µM
TGI (HOP-62 NSCLC): > 100 µM
TGI (HS 578T breast): 97.8 µM
TGI (HT29 colon): 47.9 µM
TGI (IGROV1 ovarian): > 100 µM
TGI (K-562 leukemia): > 100 µM
TGI (KM12 colon): > 100 µM
TGI (LOX IMVI melanoma): > 100 µM
TGI (M14 melanoma): > 100 µM
TGI (MALME-3M melanoma): 66.9 µM
TGI (MCF7 breast): > 100 µM
TGI (MDA-MB-231 breast): > 100 µM
TGI (MDA-MB-435): > 100 µM
TGI (MOLT-4 leukemia): 25.7 µM
TGI (NCI-H226 lung): > 100 µM
TGI (NCI-H23 lung): 27.1 µM
TGI (NCI-H460 lung): > 100 µM
TGI (NCI-H522 lung): 98.5 µM
TGI (NCI/ADR-RES ovarian): > 100 µM
TGI (OVCAR-3 ovarian): > 100 µM
TGI (OVCAR-5 ovarian): > 100 µM
TGI (OVCAR-8 ovarian): > 100 µM
TGI (PC-3 prostate): > 100 µM
TGI (RXF 393 renal): > 100 µM
TGI (SF-268 CNS): > 100 µM
TGI (SF-295 CNS): > 100 µM
TGI (SF-539 CNS): > 100 µM
TGI (SK-MEL-28 melanoma): > 100 µM
TGI (SK-MEL-5 melanoma): 34.1 µM
TGI (SK-OV-3 ovarian): > 100 µM
TGI (SN12C renal): > 100 µM
TGI (SNB-19 CNS): > 100 µM
TGI (SNB-75 CNS): 54.6 µM
TGI (SR leukemia): 79.5 µM
TGI (SW-620 colon): > 100 µM
TGI (T-47D breast): 81 µM
TGI (TK-10 renal): 65.4 µM
TGI (U251 CNS): > 100 µM
TGI (UACC-257 melanoma): 91.8 µM
TGI (UACC-62 melanoma): > 100 µM
TGI (UO-31 renal): > 100 µM
